Measurements from patent publication US6503545B1 (Brandeis University, priority 1999, dated 2003).
Where two headings read alike, the source gives them in different places.

Legend:
[1] = Stability of vitamin E in fortified milks and orange juice during refrigerated storage; type: physicochemical; conditions: 2-3 weeks in refrigerated milk
Excerpt: The stability of all-rac E, oil was also monitored in regular 1% milkfat-containing milk (abbreviated “regular milk”). […] Although the starting levels of vitamin E were not identical in the beverages studied, all products were stored identically (see above) up to the time of the vitamin assay. Since the nominal shelf-life for milk is two weeks, and for refrigerated orange juice is four weeks, comparisons of vitamin E losses were made after three weeks storage.

[2] = supplements greater than 100 IU per day, 6 years, elderly; cited from earlier work
[3] = ingestion of 1200 IU per day; cited from earlier work
[4] = Loss of vitamin E during milk processing (pasteurization); type: physicochemical; conditions: heating, e.g. pasteurization
Protocol: In addition, as Applicant has described, normal processing of milk and other food products commonly includes heating, e.g., pasteurization.
Preparation of Vitamin E-Fortified Milks: Pasteurized non-fat (skim) milk containing 2,000 I.U. per quart vitamin A palmitate and 400 I.U. per quart vitamin D2 was prepared by H.P. Hood, Inc. (Chelsea Mass.). […] Fortified cream or oil was then blended with non-fortified skim milk to make three vitamin E-fortified milks containing fat (see below). […] Milk processing losses of vitamin E were measured and were compensated, by including an excess of vitamin E in the each milk formulation equal to the measured processing loss. Four milks were formulated as follows: […]
Preparation of Vitamin E-Fortified Milks: Preparation of milks, and the packaging and storage of milks by H.P. Hood, Inc. (Chelsea Mass.) were carried out as described for vitamin E-fortified milks in the first clinical study (see milk #3), except that the new milk (milk #21) was fortified with only 15 IU of all-rac-α-tocopherol acetate per serving. A portion of the milk batch was prepared without vitamins A and D (milk #20).

[5] = per 1 mg, National Formulary; cited from earlier work
[6] = cited from earlier work; for Vit. E/Chol. ratio Incr.: above basal fasting ratio
[7] = 400 IU daily soft gel capsule, six years, 601 subjects; cited from earlier work
LDL = conditions: gel-capsule, ex vivo lag time; cited from earlier work
[8] = 150 mg natural and 150 mg synthetic daily in soft gelatin capsule, ten days; cited from earlier work
[9] = in vivo; cited from earlier work
[10] = cited from earlier work

vitamin E
shelf-life loss of vitamin E [1]: about 15% | reduction of CHD mortality [2]: 41-47% | reduction of all-cause mortality [2]: 27-34% | reduction of cancer mortality [2]: 22-23% | adverse effects [3]: no adverse effects have been observed | loss of vitamin E associated with processing, generally [4]: 20-25% | loss of vitamin E associated with processing, typically [4]: 10-30%

CC(=O)Oc1c(C)c(C)c2c(c1C)CCC(C)(CCCC(C)CCCC(C)CCCC(C)C)O2 (racemic) [all-rac-α-tocopherol acetate]
specific activity (IU per milligram) [5]: 1.00 IU | Plasma Vit E Increase ([6]; capsules 25 IU/day, above basal fasting level): 19% | Vit. E/Chol. ratio Incr. ([6]; capsules 100 IU/day): 35% | Vit. E/Chol. ratio Incr. ([6]; capsules 200 IU/day): 65% | Vit. E/Chol. ratio Incr. ([6]; capsules 400 IU/day): 115% | average increase in plasma vitamin E [7]: 83%

Cc1c(C)c2c(c(C)c1O)CCC(C)(CCCC(C)CCCC(C)CCCC(C)C)O2 (racemic) [all-rac-α-tocopherol]
minimum dose which significantly decreases the susceptibility of LDL to oxidation (LDL): 400 IU/per day | specific activity (IU per milligram) [5]: 1.10 IU

CC(=O)Oc1c(C)c(C)c2c(c1C)CC[C@@](C)(CCC[C@H](C)CCC[C@H](C)CCCC(C)C)O2 [RRR-α-tocopherol acetate]
specific activity (IU per milligram) [5]: 1.36 IU | competitive bioavailability in plasma versus all-rac-α-tocopherol acetate [8]: up to two-fold greater

Cc1c(C)c2c(c(C)c1O)CC[C@@](C)(CCC[C@H](C)CCC[C@H](C)CCCC(C)C)O2 [α-tocopherol]
supplemented dose excreted in the feces [9]: 80-90%

Cc1c(C)c2c(c(C)c1O)CC[C@@](C)(CCC[C@H](C)CCC[C@H](C)CCCC(C)C)O2 [RRR-α-tocopherol]
plasma vitamin E level, elevated ([10]; 400-800 IU daily dose, basal 34.2 μmol/L): 58 µmol/L | average elevation in the plasma vitamin E level above the basal fasting level ([10]; 400-800 IU daily dose): 70% | reduction of the risk of non-fatal heart attacks ([10]; 400 IU once per day in capsules, patients with coronary atherosclerosis): 77% | specific activity (IU per milligram) [5]: 1.49 IU
